Test results published in patent US20220040122A1, “COMPOSITION FOR ALLERGY PREVENTION, ATOPIC DERMATITIS ALLEVIATION OR SKIN REGENERATION, CONTAINING, AS ACTIVE INGREDIENT, UNDECANE OR UNDECANAL” (BOTANICSENS, priority 2019, published 2022).
Entries after “also recorded” stand apart in the source; their conditions may differ.

Tests used:
[1] = tested on: rats; conditions: cited from earlier work
[2] = tested on: Mast cells (rat basophilic leukemia cell line, RBL-2H3); assay: Inflammatory cytokine expression (real-time PCR) in anti-DNP-IgE/DNP-HSA-stimulated mast cells; format: cell-based; conditions: 1 h before DNP-HSA induction, vs immune-response-induced control
Experimental: Then, it was sensitized with anti-DNP (dinitrophenyl)-IgE (30 ng/ml) and cultured for 24 hours at 37° C., 5% CO2 in an incubator. After washing twice with PBS (phosphate buffered saline), DNP-HSA (dinitrophenylated human serum albumin; 10 μg/ml) was treated for 4 hours to induce an immune response. In addition, in order to evaluate atopy alleviating effect by undecane, mast cells treated with anti-DNP (dinitrophenyl)-IgE and cultured for 24 hours were treated with 100 μM of undecane, cultured for 1 hour, and then an immune response was induced with DNP-HSA. Normal cells were treated with DMSO instead of undecane under the same conditions as undecane-treated cells, and positive control cells were treated with 10 μM of tacrolimus instead of undecane and cultured for 1 hour, and then, an immune response was induced with DNP-HSA.
After removing the supernatant of the mast cells that induced the immune response, 1 ml of trizol was added, left for 2 minutes, and chloroform was added, vortexed for 10 seconds, centrifuged at 5,000 rpm for 10 minutes, and the upper layer was taken, and mixed with the same amount of isopropanol and shaken. The supernatant was removed by centrifugation at 13,000 rpm for 25 minutes, and the pellet was dissolved in 20 μl of diethyl pyrocarbonate (DEPC)-DW and stored at −20° C. and then used in the experiment. RT-PCR was performed using a one-step RT-PCR PreMixkit (iNtRON Biotechnology, Korea) at 45° C. for 30 minutes and at 94° C. for 5 minutes, followed by denaturation at 94° C. for 30 seconds, and then after annealing at 55° C. for 30 seconds, the cycle of extension at 72° C. for 1 minute was repeated 32 times, and the last extension was performed at 72° C. for 5 minutes, and PiQ SYBR green supermix (Bio-Rad) and CFX Connect™ Real-Time PCR Detection System (Bio-Rad) was used to perform quantitative PCR, and the primer sequences used are as shown in Table 1. […]
Then, it was sensitized with anti-DNP (dinitrophenyl)-IgE (30 ng/ml) and cultured for 24 hours at 37° C., 5% CO2 in an incubator. After washing twice with PBS (phosphate buffered saline), DNP-HSA (dinitrophenylated human serum albumin; 10 μg/ml) was treated for 4 hours to induce an immune response. In addition, in order to evaluate an effect of alleviating atopy by undecanal, mast cells treated with anti-DNP (dinitrophenyl)-IgE and cultured for 24 hours were treated with 100 μM of undecanal, cultured for 1 hour, and then an immune response was induced with DNP-HSA. Normal cells were treated with DMSO instead of undecanal under the same conditions as undecanal-treated cells, and positive control cells were treated with 10 μM of tacrolimus instead of undecanal and cultured for 1 hour, and then, an immune response was induced with DNP-HSA. […]

[3] = tested on: Keratinocytes (human keratinocyte cell line, HaCaT); assay: Inflammatory cytokine expression (real-time PCR) in TNF-α/IFN-γ-stimulated keratinocytes; format: cell-based; conditions: 24 h, vs immune-response-induced control
Experimental: (§1) Keratinocytes (human keratinocyte cell line, HaCaT) were purchased from ATCC (Manassas, Va., USA) and used. For cell culture, the culture medium of DMEM containing 10% fetal bovine serum (FBS) and antibiotics was used. The culture vessel used a 75T-flask and a 6-well plate, and cultured in a 37° C. incubator supplied with 5% CO2. The culture medium was changed every 3 to 4 days, and subculture was performed when the cells were excessively proliferated. The dispensed HaCaT cells (5×10^5/well) were cultured for 24 hours and then washed with PBS. In order to induce an immune response to keratinocytes, TNF-α (tumor necrosis factor-α) (10 ng/ml) and IFN-γ (interferon gamma) (10 ng/ml) were treated together in DMEM medium without FBS and incubated for 24 hours. At this time, in order to evaluate the efficacy of alleviating the immune response of undecane, 100 μM of undecane was simultaneously treated, and in the case of normal cells, DMSO instead of undecane, and in the case of positive control cells, 10 μM of tacrolimus instead of undecane were treated simultaneously with the immune response inducer and incubated for 24 hours.
After removing the supernatant of the mast cells that induced the immune response, 1 ml of trizol was added, left for 2 minutes, and chloroform was added, vortexed for 10 seconds, centrifuged at 5,000 rpm for 10 minutes, and the upper layer was taken, and mixed with the same amount of isopropanol and shaken. The supernatant was removed by centrifugation at 13,000 rpm for 25 minutes, and the pellet was dissolved in 20 μl of diethyl pyrocarbonate (DEPC)-DW and stored at −20° C. and then used in the experiment. RT-PCR was performed using a one-step RT-PCR PreMixkit (iNtRON Biotechnology, Korea) at 45° C. for 30 minutes and at 94° C. for 5 minutes, followed by denaturation at 94° C. for 30 seconds, and then after annealing at 55° C. for 30 seconds, the cycle of extension at 72° C. for 1 minute was repeated 32 times, and the last extension was performed at 72° C. for 5 minutes, and PiQ SYBR green supermix (Bio-Rad) and CFX Connect™ Real-Time PCR Detection System (Bio-Rad) was used to perform quantitative PCR, and the primer sequences used are as shown in Table 1.
as §1, with “undecanal,” for “undecane,”, “undecanal” for “undecane”
RNA isolation and real-time PCR (quantitative reverse-transcription polymerase chain reaction) using a Trizol method was performed by the same method as 3) RNA isolation using the Trizol method and real-time PCR of 1-1. of Example 1 described above.

[4] = tested on: rats; conditions: rat, in vivo, po; cited from earlier work
[5] = tested on: rats; conditions: chronic oral administration; cited from earlier work
[6] = 100 μM test compound together with TNF-α and IFN-γ
[7] = positive control 10 μM together with TNF-α and IFN-γ

CCCCCCCCCCC [undecane]
LD50 (lethal dose, 50%) for inhalation toxicity [1]: about 442 ppm/8H | expression of IL-4 ([2]; 100 μM test compound): significantly reduced; also recorded: remarkably reduced | expression of IL-13 ([2]; 100 μM test compound): significantly reduced; also recorded: remarkably reduced | expression of TNF-α ([2]; 100 μM test compound): significantly reduced; also recorded: remarkably reduced | expression of IL-1β [3, 6]: significantly reduced; also recorded: remarkably reduced | expression of IL-6 [3, 6]: significantly reduced; also recorded: remarkably reduced | expression of IL-8 [3, 6]: significantly reduced; also recorded: remarkably reduced

C=CC[C@@H]1/C=C(\C)C[C@H](C)C[C@H](OC)[C@H]2O[C@@](O)(C(=O)C(=O)N3CCCC[C@H]3C(=O)O[C@H](/C(C)=C/[C@@H]3CC[C@@H](O)[C@H](OC)C3)[C@H](C)[C@@H](O)CC1=O)[C@H](C)C[C@@H]2OC [tacrolimus, reference compound]
expression of IL-4 ([2]; positive control 10 μM): significantly reduced | expression of IL-13 ([2]; positive control 10 μM): significantly reduced | expression of TNF-α ([2]; positive control 10 μM): significantly reduced | expression of IL-1β [3, 7]: significantly reduced | expression of IL-6 [3, 7]: significantly reduced | expression of IL-8 [3, 7]: significantly reduced

CCCCCCCCCCC=O [undecanal]
LD50 (lethal dose, 50%) [4]: > 5,000 mg/kg bw/day | no-observed-adverse-effect level (NOAEL) [5]: about 1000 mg/kg bw | expression of IL-4 ([2]; 100 μM test compound): significantly reduced; also recorded: remarkably reduced | expression of IL-13 ([2]; 100 μM test compound): significantly reduced; also recorded: remarkably reduced | expression of TNF-α ([2]; 100 μM test compound): significantly reduced; also recorded: remarkably reduced | expression of IL-1β [3, 6]: significantly reduced; also recorded: remarkably reduced | expression of IL-6 [3, 6]: significantly reduced; also recorded: remarkably reduced | expression of IL-8 [3, 6]: significantly reduced; also recorded: remarkably reduced
